≈ marks a conversion by molar mass, not a printed value.
Columns and labels:
[1] = tested on: Escherichia coli; test: microbe, parasite or virus in culture; conditions: ATCC 25922
Description: Antibacterial activity against wild-type Escherichia coli ATCC 25922 by broth microdilution method

[2] = tested on: Klebsiella pneumoniae; test: microbe, parasite or virus in culture; conditions: T 6474
Description: Antibacterial activity against multi-drug resistant Klebsiella pneumoniae T 6474 by broth microdilution method

[3] = tested on: Pseudomonas aeruginosa; test: microbe, parasite or virus in culture; conditions: PAO1
Description: Antimicrobial activity against wild-type Pseudomonas aeruginosa PAO1 by broth microdilution method

[4] = tested on: T1, UDP-3-O-acyl-N-acetylglucosamine deacetylase (Pseudomonas aeruginosa (strain ATCC 15692 / PAO1 / 1C / PRS 101 / LMG12228)), P47205 [C40S]
T1 sequence (whole entry): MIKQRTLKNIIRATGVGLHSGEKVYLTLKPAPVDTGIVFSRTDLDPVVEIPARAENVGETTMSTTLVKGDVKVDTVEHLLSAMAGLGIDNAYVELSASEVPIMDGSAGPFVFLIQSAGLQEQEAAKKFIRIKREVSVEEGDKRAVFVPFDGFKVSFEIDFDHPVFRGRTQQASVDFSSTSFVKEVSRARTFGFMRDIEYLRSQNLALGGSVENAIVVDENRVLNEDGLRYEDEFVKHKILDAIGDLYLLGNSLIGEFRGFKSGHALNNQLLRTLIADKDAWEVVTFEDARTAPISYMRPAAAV

[5] = tested on: T2, UDP-3-O-acyl-N-acetylglucosamine deacetylase (Escherichia coli K-12), P0A725 [C125S]
T2 sequence (whole entry): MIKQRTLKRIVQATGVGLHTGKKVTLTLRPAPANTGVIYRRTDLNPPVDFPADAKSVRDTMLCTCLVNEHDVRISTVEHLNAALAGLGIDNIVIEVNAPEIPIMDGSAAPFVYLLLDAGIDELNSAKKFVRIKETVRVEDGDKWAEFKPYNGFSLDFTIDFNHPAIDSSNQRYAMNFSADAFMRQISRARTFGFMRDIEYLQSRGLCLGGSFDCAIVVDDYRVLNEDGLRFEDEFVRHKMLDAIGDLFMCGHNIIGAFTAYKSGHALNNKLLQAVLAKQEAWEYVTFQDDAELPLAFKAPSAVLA

[6] = tested on: Pseudomonas aeruginosa; test: microbe, parasite or virus in culture; conditions: ATCC 27853
Description: Antimicrobial activity against Pseudomonas aeruginosa ATCC 27853 by broth microdilution method

[7] = tested on: Pseudomonas aeruginosa; test: Antimicrobial activity against Pseudomonas aeruginosa PA2616 harboring delta mexAB-OprM mutant by broth microdilution method; assay type: functional
[8] = physchem; conditions: DMSO, pH 9
Description: Solubility of the compound in DMSO at pH 9 incubated for 24 hrs by LC-UV method

[9] = physchem; conditions: n-octanol/phosphate buffered saline, pH 7.4
Description: n-Octanol/phosphate buffered saline partition coefficient, log D of the compound at pH 7.4 by LC-UV method

[10] = physchem; conditions: DMSO, pH 7
Description: Solubility of the compound in DMSO at pH 7 incubated for 24 hrs by LC-UV method

[11] = physchem; conditions: DMSO, pH 4
Description: Solubility of the compound in DMSO at pH 4 incubated for 24 hrs by LC-UV method

| Structure (SMILES) | MIC [1] [µg/mL] | MIC [2] [µg/mL] | MIC [3] [µg/mL] | ΔTm [4] [°C] | ΔTm [5] [°C] | MIC [6] [µg/mL] | MIC [7] [µg/mL] | solubility at 24 h [8] [µg/mL] | logD [9] | solubility at 24 h [10] [µg/mL] | solubility at 24 h [11] [µg/mL] |
| --- | --- | --- | --- | --- | --- | --- | --- | --- | --- | --- | --- |
| COc1ccc(-c2cn(CC[C@](C)(C(=O)NO)S(C)(=O)=O)c(=O)o2)c(F)c1 | 8 (≈ 19.9 µM) | 16 (≈ 39.8 µM) | 8 (≈ 19.9 µM) | 9.9 | 5.2 | 8 (≈ 19.9 µM) | 1 (≈ 2.49 µM) |  |  |  |  |
| COc1ccc(-c2cn3c(n2)CN(CC[C@](C)(C(=O)NO)S(C)(=O)=O)C3=O)c(F)c1 | 4 (≈ 9.08 µM) | 16 (≈ 36.3 µM) | > 32 | 6.9 | 6 | > 32 | 8 (≈ 18.2 µM) |  |  |  |  |
| COc1ccc(-c2cc3c(s2)C(=O)N(CC[C@](C)(C(=O)NO)S(C)(=O)=O)C3)c(F)c1 | ≤ 0.06 | 0.25 (≈ 0.548 µM) | 0.5 (≈ 1.1 µM) | 12.4 | 9.3 | 1 (≈ 2.19 µM) | 0.12 (≈ 0.263 µM) | 36 (≈ 78.9 µM) | 2.1 | 5 (≈ 11 µM) |  |
| C[C@@](CCN1Cc2cc(C#CC#C[C@H]3C[C@@H]3CO)sc2C1=O)(C(=O)NO)S(C)(=O)=O | 0.15 (≈ 0.333 µM) | 0.25 (≈ 0.555 µM) | 0.5 (≈ 1.11 µM) | 15 | 12.2 | 0.5 (≈ 1.11 µM) |  | > 760 | 1.3 | 603 (≈ 1340 µM) | 522 (≈ 1160 µM) |
| CC(C)(O)c1ccc(C#Cc2cc3c(s2)C(=O)N(CC[C@](C)(C(=O)NO)S(C)(=O)=O)C3)cc1 | 0.12 (≈ 0.245 µM) | 0.25 (≈ 0.51 µM) | 1 (≈ 2.04 µM) | 15.5 | 13 | 0.5 (≈ 1.02 µM) |  | 613 (≈ 1250 µM) | 2.1 | 83 (≈ 169 µM) | 69 (≈ 141 µM) |
| COc1ccc(-c2cn(CC[C@@](C)(C(=O)NO)S(C)(=O)=O)c(=O)o2)c(F)c1 | > 32 | > 32 | > 32 | 3.7 | 1.9 | > 32 | 16 (≈ 39.8 µM) |  |  |  |  |
| COc1ccc(-c2ccc3c(c2)CN(CC[C@](C)(C(=O)NO)S(C)(=O)=O)C3=O)c(F)c1 | ≤ 0.06 | ≤ 0.06 | 2 (≈ 4.44 µM) | 11 | 9.1 | 2 (≈ 4.44 µM) | 0.25 (≈ 0.555 µM) | 22 (≈ 48.8 µM) | 1.9 | 5 (≈ 11.1 µM) |  |
| COc1ccc(-c2ccc3c(c2)oc(=O)n3CC[C@](C)(C(=O)NO)S(C)(=O)=O)c(F)c1 | 0.5 (≈ 1.11 µM) | 4 (≈ 8.84 µM) | 4 (≈ 8.84 µM) | 11 | 8.2 | 8 (≈ 17.7 µM) | ≤ 0.06 | 66 (≈ 146 µM) | 2.2 | 7 (≈ 15.5 µM) |  |
| C[C@@](CCN1Cc2cc(C#CC#CC3(CO)CC3)sc2C1=O)(C(=O)NO)S(C)(=O)=O | 1 (≈ 2.22 µM) | 1 (≈ 2.22 µM) | 1 (≈ 2.22 µM) | 14.2 | 10.9 | 1 (≈ 2.22 µM) |  | > 760 | 1.2 | > 760 | 443 (≈ 983 µM) |
| C[C@@](CCN1Cc2cc(C#Cc3ccc(COC(=O)N4CCC(O)CC4)cc3)cn2C1=O)(C(=O)NO)S(C)(=O)=O | 0.25 (≈ 0.437 µM) | 0.5 (≈ 0.873 µM) | 2 (≈ 3.49 µM) | 14.2 | 11.8 | 2 (≈ 3.49 µM) |  | 251 (≈ 438 µM) | 1.7 | 15 (≈ 26.2 µM) | < 1 |
| C[C@@](CCN1Cc2cc(C#Cc3ccc(C4(O)COC4)cc3)sc2C1=O)(C(=O)NO)S(C)(=O)=O | 0.12 (≈ 0.238 µM) | 0.5 (≈ 0.991 µM) | 2 (≈ 3.96 µM) | 14.3 | 11.4 | 0.5 (≈ 0.991 µM) |  | > 850 | 1.5 | > 850 | 114 (≈ 226 µM) |
| C[C@@](CCN1Cc2cc(C#CC#CCOC(=O)N3CCC(O)CC3)cn2C1=O)(C(=O)NO)S(C)(=O)=O | 0.5 (≈ 0.96 µM) | 1 (≈ 1.92 µM) | 2 (≈ 3.84 µM) | 12.9 | 9.4 | 2 (≈ 3.84 µM) |  | > 880 | 0.9 | 785 (≈ 1510 µM) | 641 (≈ 1230 µM) |
| COc1ccc(-c2cc3n(c2)C(=O)N(CC[C@](C)(C(=O)NO)S(C)(=O)=O)C3)c(F)c1 | 0.12 (≈ 0.273 µM) | 0.25 (≈ 0.569 µM) | 0.5 (≈ 1.14 µM) | 11.5 | 8.1 | 1 (≈ 2.28 µM) | 0.12 (≈ 0.273 µM) | 302 (≈ 687 µM) | 1.8 | 37 (≈ 84.2 µM) |  |
| C[C@@](CCN1Cc2cc(C#Cc3ccc([C@H]4C[C@@H]4CO)cc3)cn2C1=O)(C(=O)NO)S(C)(=O)=O | ≤ 0.06 | ≤ 0.06 | 1 (≈ 2.06 µM) | 13.4 | 12.1 | 0.5 (≈ 1.03 µM) |  | 170 (≈ 350 µM) | 1.4 | 24 (≈ 49.4 µM) | 11 (≈ 22.7 µM) |
| C[C@@](CCN1Cc2cc(C#CC#CC3(N)CC3)sc2C1=O)(C(=O)NO)S(C)(=O)=O.Cl | 0.25 | 0.5 | 1 | 12.5 | 10 | 1 |  | > 740 | 1 | 207 | > 740 |
| COc1ccc(-c2cnc3c(c2)CN(CCC(C)(C(=O)NO)S(C)(=O)=O)C3=O)c(F)c1 (racemic) | 32 (≈ 70.9 µM) | > 32 | > 32 | 7 | 5.6 | 32 (≈ 70.9 µM) | 16 (≈ 35.4 µM) |  |  |  |  |
| C[C@@](CCN1Cc2cc(C#CC#CC3(O)COC3)sc2C1=O)(C(=O)NO)S(C)(=O)=O | 2 (≈ 4.42 µM) | 4 (≈ 8.84 µM) | 4 (≈ 8.84 µM) | 12.2 | 7.4 | 4 (≈ 8.84 µM) |  | > 760 | 0.5 | > 760 | > 760 |

— ChEMBL document CHEMBL4321865, “Discovery of Novel Inhibitors of LpxC Displaying Potent in Vitro Activity against Gram-Negative Bacteria” (J Med Chem, 2020)
